Patent US20110128610A1, “PHENOLIC CONFIGURATIONALLY LOCKED POLYENE BULK SINGLE CRYSTALS, CRYSTALLINE THIN FILMS AND WAVEGUIDES FOR ELECTRO-OPTICS AND THZ-WAVE APPLICATIONS” (priority 2008, published 2011)
“And” between values parts separate entries of the source, which are not always exact repeats. Equal values may be shown once. Read-outs that look alike come from different tables or passages of the source. Blank lines part the entries; values can stand above or below the compound they belong to.

Legend:
[1] = comparison crystals from literature [13], [11, 18, 12]; cited from earlier work
[2] = comparison crystals; cited from earlier work
[3] = comparison crystals from literature; cited from earlier work
[4] = Solubility of OH1 and comparison crystals in methanol and other organic solvents; assay type: physicochemical
Procedure: OH1 molecules are dissolved very well in acetone and acetonitrile, and relatively good in ethanol and methanol. We selected methanol as the solvent for growing the crystals because the solubility in acetone is too high and the solute yield on decreasing the temperature is the most efficient in methanol.
The solubility of OH1 in methanol as a function of temperature is shown in FIG. 25; the solid curve is according to the Van't Hoff equation with the solution enthalpy ΔH=29±2 kJ/mol and entropy change ΔS=[…].

[5] = Solubility in water; assay type: physicochemical
[6] = Thermal stability by thermogravimetric analysis (thermal weight-loss temperature Ti); assay type: physicochemical; conditions: TGA under nitrogen atmosphere, scan rate 10° C./min
Procedure: The thermal stability of the OH1 chromophore was investigated using thermogravimetric analysis (TGA) and differential scanning calorimetry (DSC) under nitrogen atmosphere (scan rate: 10° C./min). The melting temperature Tm is defined here as the peak position in the DSC scan. The thermal weight-loss temperature Ti estimated as the temperature at the intercept of the leading edge of the weight loss by the base line of the TGA scans. […] The high thermal stability of OH1 crystals is an advantage for applying a melt-based crystal growth that is difficult for the ionic salts, e.g. DAST that decomposes at the melting temperature.

Compound: CN(C)c1ccc(C=Cc2cc[n+](C)cc2)cc1.Cc1ccc(S(=O)(=O)[O-])cc1 [DAST, 4′-dimethylamino-N-methyl-4-stilbazolium tosylate]
solubility at 40° C. (g/100 g methanol) [1]: 3.73 g/100 g methanol | solubility in water [2]: highly soluble | thermal weight-loss temperature Ti [3]: 250 °C and 250/250 °C

Compound: CN(C)c1ccc(C=CC2=CC(=C(C#N)C#N)CC(C)(C)C2)cc1 [DAT2]
solubility at 40° C. (g/100 g methanol) [1]: <0.01 g/100 g methanol | solubility in water [2]: insoluble | thermal weight-loss temperature Ti [3]: 293 °C

Solubility in Acetone ([4]; 25° C.): 25.9 g/100 g solvent | Solubility in Acetone ([4]; 40° C.): 41.8 g/100 g solvent | Solubility in Acetonitrile ([4]; 25° C.): 4.32 g/100 g solvent | Solubility in Acetonitrile ([4]; 40° C.): 5.3 g/100 g solvent | Solubility in Ethanol ([4]; 25° C.): 2.34 g/100 g solvent | Solubility in Ethanol ([4]; 40° C.): 2.5 g/100 g solvent | Solubility in Methanol ([4]; methanol, 25° C.): 2.15 g/100 g solvent | solubility at 40° C. (g/100 g methanol) ([4]; methanol, 40° C.): 3.74 g/100 g methanol | Solubility in Methanol ([4]; methanol, 40° C. (Table 9)): 3.4 g/100 g solvent | Solubility in Methylene chloride ([4]; 25° C.): 1.4 g/100 g solvent | Solubility in Methylene chloride ([4]; 40° C.): 1.9 g/100 g solvent | solubility in water [5]: insoluble
Compound: CC1(C)CC(/C=C/c2ccc(O)cc2)=CC(=C(C#N)C#N)C1 [OH1, 2-(3-(4-hydroxystyryl)-5,5-dimethylcyclohex-2-enylidene)malononitrile]

thermal weight-loss temperature Ti [6]: 242/326 °C
Compound: CC1CC(C=Cc2ccc(O)cc2)=CC(=C(C#N)C#N)C1 (stereo not shown) [OH2, 2-(3-(4-hydroxystyryl)-5-methylcyclohex-2-enylidene)malononitrile]
